In patent US10351519B2, “Sulfamate derivative compounds, processes for preparing them and their uses” (BIO-PHARM SOLUTIONS CO., LTD., priority 2016, dated 2019):

What was measured:
Assay type in all cases: in vivo
Sprague-Dawley rats [1] = assay: Antiallodynic activity on vincristine-induced pain model; conditions: intraperitoneally; for ED50: Rattus norvegicus, ip
Procedure: Male, Sprague-Dawley rats (160-180 g, Nara Bio, Korea) were habituated for 1 week before surgery and allowed free access to food and water throughout the experimentation. Room temperature and humidity were maintained at 24±2 and 50±10%, respectively.
The vincristine-induced pain model was established by the procedure of Natsuko et al. (2001) with minor modifications. Vincristine was intravenously infused continuously for 14 days using a mini-osmotic pump as follows: 30 ug/kg vincristine sulfate solution (Hospira, Australia) was diluted with 0.9% saline. The pumps (Alzet Model 2002, USA) were filled with the vincristine solution and primed by incubation at 37 for 4 hours before the infusion. Briefly, animal were put under gaseous anesthesia with isoflurane. A catheter made from PE-60 tube was inserted into an external jugular vein in rat. Sham controls were prepared in the same manner, with the external jugular vein exposed, but with the external jugular vein not cut down. […]
Tactile sensitivity (Mechanical allodynia) was evaluated using von Frey monofilaments before and after treatment, and animals were used withdrawal threshold value was less than 4 g. […] The tactile sensitivity for ipsilateral hind paw was measured using the up-and-down method (Dixon, 1980) with seven von Frey monofilaments (0.4, 1, 2, 4, 6, 8, and 15 g) to 3 trials. […] The 50% paw withdrawal threshold for each paw was calculated using the following formula: [Xth] log=[vFr] log+ky where [vFr] is the force of the last von Frey used, k=0.2249 which is the average interval (in log units) between the von Frey monofilaments, and y is a value that depends upon the pattern of withdrawal responses (Dixon, 1980).
Antiallodynic effect of compound was evaluated at the three dose, intraperitoneally administrated in a volume of 5 ul/g, bw in a vehicle of 30% (v/v) PEG or 20% (v/v) Tween 80. […]
The relative values compared to the sham (% control) were calculated and shown in Table 5, which show an antiallodynic effect of Compound 2&7 on vincristine-induced pain model in rats.

Sprague-Dawley rats [2] = assay: Lithium-pilocarpine induced epilepsy test, intervention; conditions: Rattus norvegicus, iv, i.v. at SE onset, read-out: Lithium pilocarpine model(inter) ED50
Procedure: Male Sprague-Dawley rats (purchased from Orient Bio Inc. Korea) of body weight 175 grams were used for these studies and 3 rats per cage were housed for 4-5 days. On the day prior to SE, rats received 127 mg/kg lithium chloride (Sigma, St. Louis, Mo., U.S.A.) intraperitoneally (i.p.). Approximately 18-20 h following this treatment, rats were given an i.p. injection of CD97 dose (30-43 mg/kg) pilocarpine (Sigma). An i.p. injection of 2 mg/kg methyl-scopolamine (Sigma) was administered 30 min prior to pilocarpine to block the effects of the muscarinic agonist on peripheral cholinergic receptors. Test drugs were dissolved in 20% tween80 (Sigma).
The drugs were administered intravenously (i.v.) in a volume of 2 ul/g body weight at SE onset. Pharmacological effects of all of the test materials were evaluated to compare test groups (n=3-6) with a control group (n=3-6). Control group was administered vehicle only. The animals were then transferred to observation cages and observed continuously for 90 min. Seizure was elicited in approximately 95% of the control group. Protection was defined as complete absence of seizure grade 3-5 (Racine scale; Racine, 1972) over the 90-min observation period. The effective dose of the compound necessary to protect 50% of the animals against seizures compared to controls (i.e. ED50) was determined by a curve fitting program (Excel 2007, Microsoft).

ICR mice = assay: Tail-flick test; conditions: orally
Procedure: To examine the pain relief effect of the sulfamate compounds, a tail-flick test was conducted, referring to Current Protocols in Neuroscience; Behavioral Neuroscience Unit 8.9.
ICR mice (male, 25-30 g; Orient Bio, Korea) were habituated before test (in test room) for 1 hour. Animals were fasted 2 hr before administration of compounds. Each of the tested compound were orally administered at the 1˜3 dose, 10 ul/g, by bw (n=4-6/group). All compounds were dissolved in a vehicle of 30% (v/v) PEG 400 or 20% (v/v) Tween 80. The control group was treated the vehicle without compounds.
After the administration of compounds, the mice tail were put on a tail-flick analgesia meter. To avoid tissue damage, maximal exposure time to pain stimuli was restricted to 15 seconds. The withdrawal latency was measured to the time to the point when each mouse responded. The relative values compared to the control (% control) were calculated.

Structure (SMILES) | ED50 (Sprague-Dawley rats [1]) [mg/kg] | ED50 (Sprague-Dawley rats [2]) [mg/kg] | tail-flick test Peak Time (ICR mice) | tail-flick test efficacy % (ICR mice; 100 mg/kg) | Vincristine-induced pain model Peak Time (Sprague-Dawley rats [1]) [h] | tail-flick test Dose (ICR mice) [mg/kg]
C[C@@H](OS(N)(=O)=O)[C@H](O)c1ccccc1Cl [Example 2, (1R, 2R)-1-(2-chlorophenyl)-1-hydroxypropan-2-yl sulfamate] | > 20 | – | – | – | – | –
C[C@H](OS(N)(=O)=O)[C@@H](O)c1c(Cl)cccc1Cl [Example 7, (1S, 2S)-1-(2,6-dichlorophenyl)-1-hydroxypropan-2-yl sulfamate] | 10.3 | 23.3 | 1~2 hr | 100 (19.0%) | 0.5 | –
C[C@@H](OS(N)(=O)=O)[C@H](O)c1c(Cl)cccc1Cl [Example 8, (1R, 2R)-1-(2,6-dichlorophenyl)-1-hydroxypropan-2-yl sulfamate] | – | 44.8 | – | – | – | >200
